One may read the IC50 as the concentration needed to halve the response being measured.

This assay concerns the target T1, Recombinant (1-346) HPK1 (h) (Homo sapiens, UniProt Q92918).
T1 construct: Recombinant (1-346) HPK1 (h) is incubated with 8 mM MOPS pH 7.0
T1 sequence (Q92918 1-346): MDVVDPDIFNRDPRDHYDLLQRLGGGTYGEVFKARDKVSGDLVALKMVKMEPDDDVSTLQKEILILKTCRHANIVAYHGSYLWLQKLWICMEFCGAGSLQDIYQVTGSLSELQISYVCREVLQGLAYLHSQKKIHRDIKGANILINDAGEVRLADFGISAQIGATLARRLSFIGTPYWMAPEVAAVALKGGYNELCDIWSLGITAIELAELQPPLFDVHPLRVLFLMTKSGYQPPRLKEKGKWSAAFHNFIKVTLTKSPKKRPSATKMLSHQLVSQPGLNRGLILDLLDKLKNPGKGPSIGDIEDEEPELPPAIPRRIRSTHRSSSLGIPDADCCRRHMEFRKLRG
The assay can be described thus: HPK1 human STE kinase enzymatic radiometric assay. It is filed as biochemical. Particulars: read-out: HPK1 IC50 nM Range. On the procedure: (a) HPK1 Human STE Kinase Enzymatic Radiometric Assay
A stock solution of 10 mM of test compound is prepared in DMSO. The compound plate was prepared by 3-fold and 9-point serial dilutions. Recombinant (1-346) HPK1 (h) is incubated with 8 mM MOPS pH 7.0, 0.2 mM EDTA, 0.33 mg/mL myelin basic protein, 10 mM MgAcetate and [gamma-33P]-ATP (specific activity and concentration as required). The reaction is initiated by the addition of the Mg/ATP mix. After incubation for 40 minutes at RT, the reaction is stopped by the addition of phosphoric acid to a concentration of 0.5%, 10 μL of the reaction is then spotted onto a P30 filtermat and washed four times for 4 minutes in 0.425% phosphoric acid and once in methanol prior to drying and scintillation counting. For more details of kinase assay protocols, see: Gao, Y. et. al.; Biochem J.451 (2): 313-328, 2013.
For the molecule `CN(C)[C@@H]1COc2ccc(-c3nc(-c4cc5c(cc4F)C(=O)NCC5)c(N)nc3F)cc21` [Example I-255, (S)-6-(3-amino-6-(3-(dimethylamino)-2,3-dihydrobenzofuran-5-yl)-5-fluoropyrazin-2-yl)-7-fluoro-3,4-dihydroisoquinolin-1(2H)-one], the IC50 is 11 to 100 nM. Turning to `CN1CCN(c2ccc(-c3nc(-c4cc5c(cc4F)C(=O)NCC5)c(N)nc3F)cc2)CC1` [Example I-54, 6-(3-amino-5-fluoro-6-(4-(4-methylpiperazin-1-yl)phenyl)pyrazin-2-yl)-7-fluoro-3,4-dihydroisoquinolin-1(2H)-one], the IC50 was in the range of 0.1 to 10 nM.

Take `Cc1cc(-c2nc(-c3ccc4c(=O)[nH]cc(C)c4c3)c(N)nc2F)cc2c1CCN(C)C2` [Example I-295, 6-(3-amino-6-(2,5-dimethyl-1,2,3,4-tetrahydroisoquinolin-7-yl)-5-fluoropyrazin-2-yl)-4-methylisoquinolin-1(2H)-one]: the concentration for half-maximal inhibition (IC50) lay in the range of 11 to 100 nM.

Take `CO[C@@H]1CCN(Cc2cc(-c3nc(-c4ccc5c(c4)CCNC5=O)c(N)nc3F)ccc2N2CCOCC2)C1` [Example I-151, (R)-6-(3-amino-5-fluoro-6-(3-((3-methoxypyrrolidin-1-yl)methyl)-4-morpholinophenyl)pyrazin-2-yl)-3,4-dihydroisoquinolin-1(2H)-one]: the IC50 lay in the range of 0.1 to 10 nM. Consider `CN(C)[C@@H]1COc2ccc(-c3nc(-c4cc(F)c5c(=O)[nH]cc(F)c5c4)c(N)nc3F)cc21` [Example I-253, (S)-6-(3-amino-6-(3-(dimethylamino)-2,3-dihydrobenzofuran-5-yl)-5-fluoropyrazin-2-yl)-4,8-difluoroisoquinolin-1(2H)-one], for which the IC50 is 0.1 to 10 nM. To `Cc1nc2cc(-c3nc(-c4ccc(N5CCN(CC6CC6)CC5)cc4)c(F)nc3N)ccc2c(=O)[nH]1` [Example I-79, 7-(3-amino-6-(4-(4-(cyclopropylmethyl)piperazin-1-yl)phenyl)-5-fluoropyrazin-2-yl)-2-methylquinazolin-4(3H)-one] belongs 101 to 1000 nM. To `Cc1c[nH]c(=O)c2ccc(-c3nc(-c4ccc(O)c(CN(C)C)c4)c(F)nc3N)cc12` [Example I-306, 6-(3-amino-6-(3-((dimethylamino)methyl)-4-hydroxyphenyl)-5-fluoropyrazin-2-yl)-4-methylisoquinolin-1(2H)-one] belongs 11 to 100 nM.

`CN(C)Cc1cc(-c2nc(-c3cc(F)c4c(c3)CCNC4=O)c(N)nc2F)ccc1N1CCOCC1` [Example I-88, 6-(3-amino-6-(3-((dimethylamino)methyl)-4-morpholinophenyl)-5-fluoropyrazin-2-yl)-8-fluoro-3,4-dihydroisoquinolin-1(2H)-one]: the IC50 is 11 to 100 nM. To `CN(C)Cc1cc(-c2nc(-c3ccc4c(=O)[nH]cc(F)c4c3)c(N)nc2F)c(F)cc1N1CCOCC1` [Example I-259, 6-(3-amino-6-(5-((dimethylamino)methyl)-2-fluoro-4-morpholinophenyl)-5-fluoropyrazin-2-yl)-4-fluoroisoquinolin-1(2H)-one] belongs 11 to 100 nM; to `COC1CCN(Cc2cc(-c3nc(-c4cc5c(cc4F)C(=O)NCC5)c(N)nc3F)ccc2N2CCSCC2)CC1` [Example I-127, 6-(3-amino-5-fluoro-6-(3-((4-methoxypiperidin-1-yl)methyl)-4-thiomorpholinophenyl)pyrazin-2-yl)-7-fluoro-3,4-dihydroisoquinolin-1(2H)-one], 11 to 100 nM.

For the molecule `CC(C)N1CCN(c2ccc(-c3nc(-c4cc(F)c5c(=O)[nH]cc(Cl)c5c4)c(N)nc3F)cc2)CC1` [Example I-90, 6-(3-amino-5-fluoro-6-(4-(4-isopropylpiperazin-1-yl)phenyl)pyrazin-2-yl)-4-chloro-8-fluoroisoquinolin-1(2H)-one], the IC50 was 0.1 to 10 nM. For `C[C@@H]1CN(c2ccc(-c3nc(-c4cc(F)c5c(c4)CCNC5=O)c(N)nc3F)cc2CN(C)C)C[C@H](C)O1` [Example I-197, 6-(3-amino-6-(3-((dimethylamino)methyl)-4-((2R,6S)-2,6-dimethylmorpholino)phenyl)-5-fluoropyrazin-2-yl)-8-fluoro-3,4-dihydroisoquinolin-1(2H)-one], the concentration for half-maximal inhibition (IC50) was 0.1 to 10 nM. On to `C[C@H]1CN(c2ccc(-c3nc(-c4ccc5c(c4)CCNC5=O)c(N)nc3F)cc2CN(C)C)CCO1` [Example I-211, (S)-6-(3-amino-6-(3-((dimethylamino)methyl)-4-(2-methylmorpholino)phenyl)-5-fluoropyrazin-2-yl)-3,4-dihydroisoquinolin-1(2H)-one], for which the IC50 lay within 0.1 to 10 nM. To `Nc1nc(F)c(-c2ccc(N3CCN(CCCC(F)F)CC3)cc2)nc1-c1ccc2c(c1)CCNC2=O` [Example I-68, 6-(3-amino-6-(4-(4-(4,4-difluorobutyl)piperazin-1-yl)phenyl)-5-fluoropyrazin-2-yl)-3,4-dihydroisoquinolin-1(2H)-one] belongs 0.1 to 10 nM; to `CCN(C)Cc1cc(-c2nc(-c3ccc4c(c3)CCNC4=O)c(N)nc2F)ccc1C1CCOCC1` [Example I-163, 6-(3-amino-6-(3-((ethyl(methyl)amino)methyl)-4-(tetrahydro-2H-pyran-4-yl)phenyl)-5-fluoropyrazin-2-yl)-3,4-dihydroisoquinolin-1(2H)-one], 0.1 to 10 nM; to `CCN(C)Cc1cc(-c2nc(-c3ccc4c(=O)[nH]cc(F)c4c3)c(N)nc2F)cc(C)c1OC` [Example I-298, 6-(3-amino-6-(3-((ethyl(methyl)amino)methyl)-4-methoxy-5-methylphenyl)-5-fluoropyrazin-2-yl)-4-fluoroisoquinolin-1(2H)-one], 11 to 100 nM. To `Nc1nc(F)c(-c2ccc(N3CCOCC3)c(CN3CCC3)c2F)nc1-c1ccc2c(c1)CCNC2=O` [Example I-243, 6-(3-amino-6-(3-(azetidin-1-ylmethyl)-2-fluoro-4-morpholinophenyl)-5-fluoropyrazin-2-yl)-3,4-dihydroisoquinolin-1(2H)-one] belongs 11 to 100 nM; to `Nc1nc(F)c(-c2ccc([C@]34C[C@H]3CN(C3CCC3)C4)cc2)nc1-c1ccc2c(=O)[nH]cc(F)c2c1` [Example I-99, 6-(3-amino-6-(4-((1S,5R)-3-cyclobutyl-3-azabicyclo[3.1.0]hexan-1-yl)phenyl)-5-fluoropyrazin-2-yl)-4-fluoroisoquinolin-1(2H)-one], 0.1 to 10 nM; to `C[C@@H]1CCCN1Cc1cc(-c2nc(-c3ccc4c(c3)C(F)(F)CNC4=O)c(N)nc2F)ccc1C1CCOCC1` [Example I-232, (R)-6-(3-amino-5-fluoro-6-(3-((2-methylpyrrolidin-1-yl)methyl)-4-(tetrahydro-2H-pyran-4-yl)phenyl)pyrazin-2-yl)-4,4-difluoro-3,4-dihydroisoquinolin-1(2H)-one], 0.1 to 10 nM.

As to `Cc1nc2cc(-c3nc(-c4ccc(N5C[C@@H](C)O[C@@H](C)C5)c(CN(C)C)c4)c(F)nc3N)cc(F)c2c(=O)[nH]1` [Example I-196, 7-(3-amino-6-(3-((dimethylamino)methyl)-4-((2R,6S)-2,6-dimethylmorpholino)phenyl)-5-fluoropyrazin-2-yl)-5-fluoro-2-methylquinazolin-4(3H)-one], the IC50 lay in the range of 11 to 100 nM. To `C[C@@H]1CN(c2ccc(-c3nc(-c4ccc5c(=O)[nH]cc(Cl)c5c4)c(N)nc3F)cc2CN(C)C)C[C@H](C)O1` [Example I-231, 6-(3-amino-6-(3-((dimethylamino)methyl)-4-((2R,6S)-2,6-dimethylmorpholino)phenyl)-5-fluoropyrazin-2-yl)-4-chloroisoquinolin-1(2H)-one] belongs 0.1 to 10 nM.
